Laboratory results: publication PMC5768637, “In Vitro and in Silico Evidence of Phosphatase Diversity in the Biomineralizing Bacterium Ramlibacter tataouinensis” (Frontiers in Microbiology, 2018)

Experiments:
Rta PhoX1 = target: T1, Rta PhoX1 (Ramlibacter tataouinensis, UniProt F5Y472); experiment: p-nitrophenol release at […] nm, total soluble protein of expressing E. coli; assay type: biochemical; conditions: 50 mM Tris pH 8, 5 mM CaCl2, 5 mM MgCl2, 0.6 mM substrate
T1 construct: gene Rta_14460; codon-optimised synthetic gene in pET-22b (MscI/BamHI), E. coli BL21(DE3); total soluble protein extract; precursor 643 aa, predicted Tat signal 51 aa; no precursor form seen on SDS-PAGE
T1 sequence (F5Y472 52-643): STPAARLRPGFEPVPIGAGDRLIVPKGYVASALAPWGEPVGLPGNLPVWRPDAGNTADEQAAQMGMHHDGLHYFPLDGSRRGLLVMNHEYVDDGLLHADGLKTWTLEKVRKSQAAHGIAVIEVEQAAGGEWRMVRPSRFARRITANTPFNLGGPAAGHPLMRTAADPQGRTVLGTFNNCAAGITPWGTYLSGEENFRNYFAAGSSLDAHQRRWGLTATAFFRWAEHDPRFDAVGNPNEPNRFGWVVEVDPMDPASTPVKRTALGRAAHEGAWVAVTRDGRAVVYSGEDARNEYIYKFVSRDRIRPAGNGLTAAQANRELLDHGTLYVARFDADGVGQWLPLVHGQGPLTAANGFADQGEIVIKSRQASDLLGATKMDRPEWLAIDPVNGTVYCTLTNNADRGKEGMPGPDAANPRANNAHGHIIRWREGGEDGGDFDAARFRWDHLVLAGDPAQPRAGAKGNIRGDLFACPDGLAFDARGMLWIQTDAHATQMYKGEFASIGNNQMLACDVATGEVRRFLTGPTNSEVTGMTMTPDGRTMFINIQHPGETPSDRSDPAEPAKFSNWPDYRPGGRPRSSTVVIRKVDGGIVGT

Rta PhoD = target: T2, Rta PhoD (Ramlibacter tataouinensis, UniProt F5XVP7); experiment: as above; assay type: biochemical; conditions: 50 mM Tris pH 8, 5 mM CaCl2, 5 mM MgCl2, 0.6 mM substrate
T2 construct: codon-optimised synthetic gene in pET-22b (MscI/BamHI), E. coli BL21(DE3); total soluble protein extract; precursor 530 aa, predicted Tat signal 31 aa; no precursor form seen on SDS-PAGE
T2 sequence (F5XVP7 32-530): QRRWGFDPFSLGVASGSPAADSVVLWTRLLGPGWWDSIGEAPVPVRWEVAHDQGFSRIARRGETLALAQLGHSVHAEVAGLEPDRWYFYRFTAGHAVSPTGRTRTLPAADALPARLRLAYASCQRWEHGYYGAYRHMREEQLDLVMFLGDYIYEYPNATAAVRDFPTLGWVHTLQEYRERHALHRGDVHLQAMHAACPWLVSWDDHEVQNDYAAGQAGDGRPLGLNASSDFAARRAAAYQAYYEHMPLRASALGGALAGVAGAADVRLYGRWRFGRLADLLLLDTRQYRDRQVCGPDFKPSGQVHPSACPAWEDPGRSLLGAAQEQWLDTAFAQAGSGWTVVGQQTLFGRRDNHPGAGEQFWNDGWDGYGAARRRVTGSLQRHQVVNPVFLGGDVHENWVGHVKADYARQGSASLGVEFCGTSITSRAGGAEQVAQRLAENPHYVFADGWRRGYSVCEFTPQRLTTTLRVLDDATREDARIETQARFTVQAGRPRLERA

O=[N+]([O-])c1ccc(OP(=O)(O)O)cc1 [pNPP, p-nitrophenylphosphate]
p-nitrophenol release at 405 nm, total soluble protein of expressing E. coli (Rta PhoX1): the activity of PhoX1 was higher for monoester
p-nitrophenol release at 405 nm, total soluble protein of expressing E. coli (Rta PhoD): PhoD and PhoX1 hydrolyzed all the pNPP derivatives (pNPP, bis-pNPP, and TpNPP)

O=[N+]([O-])c1ccc(OP(=O)(O)Oc2ccc([N+](=O)[O-])cc2)cc1 [bis-pNPP, bis p-nitrophenylphosphate]
p-nitrophenol release at 405 nm, total soluble protein of expressing E. coli (Rta PhoX1): PhoD and PhoX1 hydrolyzed all the pNPP derivatives (pNPP, bis-pNPP, and TpNPP)
p-nitrophenol release at 405 nm, total soluble protein of expressing E. coli (Rta PhoD): the activity of PhoD was higher for bis-pNPP diester
